Literature values as cited in US6423677B1, “Cleaner/degreaser concentrate compositions” (Buckeye International, Inc., priority 1995, dated 2002).

Settings: in water, ambient temperature

Structure (SMILES) | aqueous ambient temperature solubility [wt. %]
CC(O)COc1ccccc1 (centres unmarked) [1-phenoxy-2-propanol] | 1.1
OCCOc1ccccc1 [2-phenoxyethanol] | 2.3
CCN(CC)c1ccccc1 [N,N-diethylaniline] | 1.4
c1ccc(N2CCOCC2)cc1 [N-phenylmorpholine] | 1.0
CC(=O)c1ccccc1 [acetophenone] | 0.5
O=Cc1ccccc1 [benzaldehyde] | 0.3
OCc1ccccc1 [benzyl alcohol] | 4.4
O=C1CCCCC1 [cyclohexanone] | 2.3
CCOC(=O)CCCCC(=O)OCC [diethyl adipate] | 0.43
CCOC(=O)CCCC(=O)OCC [diethyl glutarate] | 0.88
CCOC(=O)CC(=O)OCC [diethyl malonate] | 2.08
CC1=CC(=O)CC(C)(C)C1 [isophorone] | 1.2
CC(=O)CC(C)C [methylisobutyl ketone] | 2.0
CCCCCOC(C)=O [n-amyl acetate] | 0.25
CCCCCO [n-amyl alcohol] | 2.7
CCCCOC(C)=O [n-butyl acetate] | 0.7
CC[N+](=O)[O-] [nitroethane] | 4.5
OCCc1ccccc1 [β-phenylethanol] | 1.6

Same assay, conditions: in water; solvents not useful in the invention

Structure (SMILES) | aqueous solubility
CC(C)CC(=O)CC(C)C [2,6-dimethyl-4-heptanone] | 0.05 wt. %
CCCCC(CC)COCCO (centres unmarked) [2-(2-ethylhexoxy)-ethanol] | 0.095 wt. %
CN1CCCC1=O [N-methyl pyrrolidone] | infinite
CC1COC(=O)O1 (centres unmarked) [propylene carbonate] | 19.6 wt. %
COCC(C)OC(C)=O (centres unmarked) [propylene glycol monomethyl ether acetate] | 16.5 wt. %
